Experiments:
[1] = tested on: reverse transcriptase of Schmidt-Ruppin D (SR-D) virus; settings: German Laid-Open Application DOS No. 3,601,136; cited from earlier work
[2] = background statement; may induce hemorrhages; cited from earlier work
HIV = settings: Antiviral Res. 7 [1987], 361; cited from earlier work
[3] = tested on: reverse transcriptase from HIV I; settings: literature and own experiments, cf. Table 1; cited from earlier work
[4] = tested on: reverse transcriptase from HIV I; assay: Enzyme test with reverse transcriptase from HIV I; format: biochemical; settings: 50 μg/ml substance; 120 minutes at 37° C.; poly(rA)/oligo(dT)15 matrix, 3H-dTTP
Description: I. Enzyme test with reverse transcriptase from HIV I
In the model system described below, the activity of the reverse transcriptase is determined in the presence of an inhibitor, essentially according to Hansen et al. (J. Biol. Chem. 262 [1987], 12393).
The enzyme test has a total volume of 50 μl and contains the following components: 50 mM tris-HCl pH 7.8, 80 mM KCl, 8 mM MgCl2 and 1 mM DTT. This system contains the synthetic polymer poly(rA)/oligo (dT)15 (Boehringer Mannheim) as a matrix, in a concentration of 1 mg/ml. This matrix consists of a synthetic RNA having a length of 100-200 nucleotides,to which short DNA primers having a length of 15 nucleotides are bonded. The DNA primers serve as starting points for the reverse transcriptase. […]
The DNA bound to the exchanger is dried under an infrared lamp, after which the activity is determined by liquid scintillation measurement. The unspecific background is the radioactivity bound to the DEAE filter in the absence of reverse transcriptase in the method described above. […]
The activity of the reverse transcriptase in the presence of a potential inhibitor is expressed as a percentage of the activity in the absence of an inhibitor; or the inhibitory action of a substance (%) is defined as 100% minus the activity in percent.

Substance	inhibition of reverse transcriptase of SR-D virus [1]	anticoagulant properties [2]	inhibition of HIV replication in vitro (HIV)	inhibitory action on reverse transcriptase of HIV I (in words) [3]	Inhibition % [4]
heparin [Commercial heparin]	inhibits reverse transcriptase	has anticoagulant properties	selective inhibitor of HIV replication in vitro	could not, however, be confirmed	
heparin [Unfractionated heparin]					0%
